In publication PMC3578829, “A Small Molecule (Pluripotin) as a Tool for Studying Cancer Stem Cell Biology: Proof of Concept” (PLoS ONE, 2013):

Assays:
CHK2 = CHK2 (Homo sapiens, UniProt O96017); experiment: In vitro kinase inhibition assay (same assay as RSK2); type: biochemical
Procedure: (§1) RSK2 (90 kD ribosomal S6 kinase), a kinase with both a N- and C-terminal functional domains, phosphorylates multiple targets and is phosphorylated by ERK1/2, another SC-1 target. As a downstream effector, RSK2 signals many cellular behaviors including cell survival, growth, proliferation, and migration. […] Potential inhibitory activity of SC-1 on a random selection of other protein kinases (Aurora kinase B, CHK1, and CHK2) was also evaluated in the same assay and no effect was found (Figure 4A). To determine if activity of related (to RSK2) protein kinases in the AGC kinase family was inhibited by SC-1, further studies were conducted (Table 3). […] Because SC-1 inhibited these selected kinases in the micromolar range and the kinase assay is distinct from the one reporting data in Figure 4A, the positive EC50 value for Abl1 kinase was reported in Table 3 as well. These findings were consistent with predictions reported by Okram et al..
(§2) The RSK2 in vitro kinase inhibition assay utilized was a modification of protocols established by Nguyen et al.. Additional protocols that confirmed the results depicted in Figure 4 and evaluated kinase inhibitory activity in a random selection of protein kinases (Table 3) were conducted at Reaction Biology Corporation (Malvern, PA). This was a miniaturized ^33P-based screening assay.

CHK1 = CHK1 (Homo sapiens, UniProt O14757); experiment: as above; type: biochemical
Procedure: as §1, §2

Aurora kinase B = Aurora kinase B (Homo sapiens, UniProt Q96GD4); experiment: as above; type: biochemical
Procedure: as §1, §2

HCT-116 = experiment: Soft agar cloning assay; type: cell-based
Procedure: (§3) The soft agar colony formation assay has been previously described. In brief, for each treatment condition, triplicate 35 mm^2 dishes were coated with a 1 ml base layer containing 0.7% agarose (Seaplaque: FMC Corp., Rockland, ME). On day 0, cells were dissociated, washed once in growth medium, and subcultured by layering various cell concentrations in 0.5 ml culture medium containing 0.3% agarose onto the base coat. Culture dishes were transferred to a refrigerator (4°C) for 15 min, to room temperature for 10 min, and then to culture incubators. An upper layer of 0.5 ml culture medium was applied on day 0. Cultures were stained with MTT (1 mg/ml) for visualization and imaging at multiple time intervals (day 7 and 14). Cumulative counts of colonies (diameters, >60 µm) and cumulative volumes of CFU (diameters >120 µm) were determined with an Omnicon FAS-II (Bausch & Lomb, Rochester, NY) following calibration with an Omnicon test plate 3 and polystyrene microspheres embedded in soft agar matrix. The evaluable region of each culture dish (35 contiguous fields equivalent to 51% of the cell layer culture volume) was analyzed. Selective scoring of viable cell groups was achieved by adjustment of the instrument detection threshold to exclude images of nonstained cellular material and debris. The data was analyzed with Lotus Symphony software.

HCC-2998 = experiment: Soft agar cloning assay; type: cell-based
Procedure: as §3

COLO 205 = experiment: Soft agar cloning assay; type: cell-based
Procedure: as §3

HT29 = experiment: Soft agar cloning assay; type: cell-based
Procedure: as §3

KM12 = experiment: Soft agar cloning assay; type: cell-based
Procedure: as §3

HCT-15 = experiment: Limiting dilution tumorigenicity with Matrigel co-injection; type: in vivo, NOD.SCID mice; design: key to Tumorigenicity: Y indicates increased tumor formation or increased time to appearance or both.; Y ^%: Y indicates increased tumor formation when Matrigel was co-injected
From the text: To explore the lack of a tumorigenic effect for SC-1 treated HCT-15 cells, the limiting dilution tumorigenicity assay was repeated with the addition of Matrigel to the injected cells (10, 100, 1000, and 10000 cells per injection). A protein support such as Matrigel may provide anchoring, a substrate for angiogenesis, and growth factors. […] For SC-1 treated cells co-injected with Matrigel, 5 of 5 mice had tumor formation over the 99 day observation period at the 10 cell inoculum (Figure 1).
Six week old female NOD.SCID mice were randomly assigned to each of 20 treatment arms (n = 5/group). Treated and control colon tumor lines were enzymatically harvested and counted prior to dilution in RPMI 1640 (at 10, 100, 1,000, 10,000 cells/inoculum) for subcutaneous injection into the axillary region using a volume of […]. Positive control groups were established such that tumor formation occurred in all mice in approximately one week thus confirming that all tumor lines studied were tumorigenic. Cell inocula for the positive control groups ranged from 1×10^6 to 2.5×10^6. Cell viability of the cell stocks was assessed by trypan blue exclusion prior to dilution for injection and was routinely found to be >95%. Tumor formation was monitored weekly using caliper measurements and the tumor mass was calculated as weight in mg = 1/2×(tumor length)×(tumor width)^2. All experiments were terminated at 120 days or when tumor weight exceeded 2000 mg for any individual mouse. In selected studies, tumor cells were resuspended in Matrigel (50% concentration, BD Biosciences) prior to injection.

OCT4 = experiment: Immunoblotting of OCT4 in HCC-2998; type: cell-based; details: 0.1 µM SC-1
Procedure: Standard protein electrophoretic techniques were followed using previously published protocols. For these studies, the colon lines were cultured for 5 days with and without treatments, harvested with trypsin (0.25% trypsin 0.5 mM EDTA, Invitrogen), counted and lysed with a whole cell lysis buffer (10 mM Tris, 1.0 mM EDTA, 50 mM NaCl, 0.5% deoxycholate, 0.5% NP-40, 0.5% SDS, 1.0 mM PMSF, and aprotonin and a cocktail of phosphatase and protease inhibitors). The whole cell lysate was heated to 100°C for 10 min and then fractionated (1000 g, 10 min, 4°C). Protein concentrations were measured with the Pierce BCA Protein Assay. Twenty to 40 µg of protein lysate per lane were loaded onto 10% SDS polyacrylamide gels (Ready-Gels, Biorad) with Laemmli buffer. For immunoblotting, the primary antibodies were diluted in Tween/Tris wash buffer (0.1 mM Tris-HCl pH 7.5, 2.5% Tween-20, 150 mM NaCl) and 5% BSA or nonfat dry milk and incubated overnight at 4°C. Visualization of specific bands was accomplished with an alkaline phosphatase-labeled secondary anti-immunoglobulin antibody and the ECF Chemifluorescent reagent (GE Amersham). Pixel intensity of the imaged bands was measured using STORM (GE Amersham) and Image Quant Software. Normalization for loading was accomplished by reprobing with an anti-actin antibody, quantification of pixel intensity and data normalization.

[1] = soft agar, summary of SC-1 effects

Chain of CHK1 (O14757 whole entry, species assumed): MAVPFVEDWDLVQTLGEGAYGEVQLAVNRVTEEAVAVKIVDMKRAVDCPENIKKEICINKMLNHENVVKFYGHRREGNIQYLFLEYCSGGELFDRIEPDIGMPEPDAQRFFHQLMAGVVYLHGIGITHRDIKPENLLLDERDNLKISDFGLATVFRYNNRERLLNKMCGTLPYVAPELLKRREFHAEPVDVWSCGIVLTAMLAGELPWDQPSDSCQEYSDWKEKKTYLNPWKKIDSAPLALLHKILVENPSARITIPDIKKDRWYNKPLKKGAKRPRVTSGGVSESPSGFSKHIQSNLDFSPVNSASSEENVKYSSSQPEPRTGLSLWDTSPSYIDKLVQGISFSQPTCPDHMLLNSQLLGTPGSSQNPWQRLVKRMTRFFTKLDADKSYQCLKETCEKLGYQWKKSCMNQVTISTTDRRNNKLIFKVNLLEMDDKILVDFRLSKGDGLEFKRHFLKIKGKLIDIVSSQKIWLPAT
Chain of Aurora kinase B (Q96GD4 whole entry, species assumed): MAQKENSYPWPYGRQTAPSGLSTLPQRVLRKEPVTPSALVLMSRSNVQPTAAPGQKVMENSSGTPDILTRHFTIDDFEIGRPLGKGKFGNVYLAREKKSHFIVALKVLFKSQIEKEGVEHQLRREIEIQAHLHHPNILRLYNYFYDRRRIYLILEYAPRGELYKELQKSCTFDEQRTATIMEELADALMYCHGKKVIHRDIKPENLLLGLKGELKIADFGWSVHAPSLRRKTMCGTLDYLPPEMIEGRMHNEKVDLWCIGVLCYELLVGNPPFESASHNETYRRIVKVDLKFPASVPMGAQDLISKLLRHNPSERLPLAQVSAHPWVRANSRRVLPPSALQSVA
Chain of CHK2 (O96017 whole entry, species assumed, the tested form may be a part): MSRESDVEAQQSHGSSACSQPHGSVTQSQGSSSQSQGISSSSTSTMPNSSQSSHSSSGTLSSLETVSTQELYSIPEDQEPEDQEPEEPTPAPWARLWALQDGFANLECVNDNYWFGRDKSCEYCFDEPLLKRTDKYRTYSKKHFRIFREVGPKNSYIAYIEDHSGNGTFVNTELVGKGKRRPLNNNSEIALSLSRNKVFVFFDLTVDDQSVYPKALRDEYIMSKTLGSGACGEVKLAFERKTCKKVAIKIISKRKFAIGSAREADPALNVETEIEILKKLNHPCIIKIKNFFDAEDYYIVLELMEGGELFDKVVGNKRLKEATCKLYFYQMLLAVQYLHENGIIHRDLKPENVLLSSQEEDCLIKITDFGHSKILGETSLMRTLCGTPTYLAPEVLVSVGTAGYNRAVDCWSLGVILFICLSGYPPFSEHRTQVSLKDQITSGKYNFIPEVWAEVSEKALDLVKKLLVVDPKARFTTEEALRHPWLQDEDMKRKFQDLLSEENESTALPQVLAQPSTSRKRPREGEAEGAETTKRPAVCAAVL

Cc1cc(Nc2ncc3c(n2)N(C)C(=O)N(c2cc(NC(=O)c4cccc(C(F)(F)F)c4)ccc2C)C3)n(C)n1 [SC-1]
Inhibitory activity on kinase (CHK2): no effect
Inhibitory activity on kinase (CHK1): no effect
Inhibitory activity on kinase (Aurora kinase B): no effect
Cloning efficiency in soft agar vs control (HCT-116; 0.1 µM SC-1 for five days): significant increases in cloning efficiencies
Clonogenicity (HCT-116; [1]): Y
Cloning efficiency in soft agar vs control (HCC-2998; 0.1 µM SC-1 for five days): significant increases in cloning efficiencies
Clonogenicity (HCC-2998; [1]): Y
Colony formation in soft agar vs control (COLO 205; 0.1 µM SC-1 for 24 hrs prior to cloning): increased colony formation was found only at the highest plating density
Cloning efficiency in soft agar vs control (COLO 205; 0.1 µM SC-1 for five days): significant increases in cloning efficiencies
Clonogenicity (COLO 205; [1]): Y
Cloning efficiency in soft agar vs control (HT29; 0.1 µM SC-1 for five days): significant increases in cloning efficiencies
Clonogenicity (HT29; [1]): Y
Cloning efficiency in soft agar vs control (KM12; 0.1 µM SC-1 for five days): significant increases in cloning efficiencies
Clonogenicity (KM12; [1]): Y
Tumor formation (HCT-15; HCT-15, 100, 1000, and 10000 cells per injection with Matrigel): tumors formed in all mice
Tumorigenicity (HCT-15; HCT-15, Matrigel co-injected, summary of SC-1 effects): Y ^%
Tumor formation (take rate) (HCT-15; HCT-15 SC-1 treated, 10 cell inoculum co-injected with Matrigel, 99 day observation): 5 of 5
OCT4 protein expression (OCT4): increased
